Data: ChEMBL document CHEMBL3882724 (2013)

Legend:
[1] = target: T1, Steroid 17-alpha-hydroxylase/17,20 lyase (Homo sapiens, UniProt P05093); assay: Inhibition of CYP17 in human testicular microsomes using 17alpha-hydroxypregnenolone as substrate assessed as decrease in DHEA levels at 10 nM after 90 mins by ELISA relative to control; design: species or system Testis; conditions: 1.5 h
T1 sequence (P05093 whole entry): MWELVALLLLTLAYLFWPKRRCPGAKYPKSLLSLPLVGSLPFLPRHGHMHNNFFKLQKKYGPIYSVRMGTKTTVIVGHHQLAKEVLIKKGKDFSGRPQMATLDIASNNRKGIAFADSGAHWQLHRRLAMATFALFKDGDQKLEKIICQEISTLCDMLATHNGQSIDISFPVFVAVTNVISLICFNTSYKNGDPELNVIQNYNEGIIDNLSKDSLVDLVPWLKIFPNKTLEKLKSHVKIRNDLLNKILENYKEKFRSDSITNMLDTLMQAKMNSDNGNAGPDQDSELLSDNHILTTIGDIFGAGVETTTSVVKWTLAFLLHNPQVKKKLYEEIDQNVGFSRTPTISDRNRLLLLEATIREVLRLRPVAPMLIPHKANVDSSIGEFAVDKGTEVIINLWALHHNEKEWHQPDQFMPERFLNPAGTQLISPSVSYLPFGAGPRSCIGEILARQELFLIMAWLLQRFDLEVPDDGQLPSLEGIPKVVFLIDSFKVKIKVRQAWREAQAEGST

[2] = target: T1, Steroid 17-alpha-hydroxylase/17,20 lyase; assay: Inhibition of CYP17 in human testicular microsomes using 17alpha-hydroxypregnenolone as substrate assessed as decrease in DHEA levels after 90 mins by ELISA; design: species or system Testis
[3] = Half life in human liver microsomes at 1 uM by LC-MS/MS analysis
[4] = target: T2, CYP21 (steroid 21-hydroxylase) (Homo sapiens, UniProt P08686); assay: Inhibition of human CYP21 transfected in HEK293 cells assessed as decrease in conversion of progesterone to 11-deoxycorticosterone at 100 nM preincubated for 5 hrs followed by progesterone addition measured after 20 hrs by ELISA relative to control; type: cell-based; conditions: HEK293 cells transfected with human CYP21, probe progesterone
T2 sequence (P08686 whole entry): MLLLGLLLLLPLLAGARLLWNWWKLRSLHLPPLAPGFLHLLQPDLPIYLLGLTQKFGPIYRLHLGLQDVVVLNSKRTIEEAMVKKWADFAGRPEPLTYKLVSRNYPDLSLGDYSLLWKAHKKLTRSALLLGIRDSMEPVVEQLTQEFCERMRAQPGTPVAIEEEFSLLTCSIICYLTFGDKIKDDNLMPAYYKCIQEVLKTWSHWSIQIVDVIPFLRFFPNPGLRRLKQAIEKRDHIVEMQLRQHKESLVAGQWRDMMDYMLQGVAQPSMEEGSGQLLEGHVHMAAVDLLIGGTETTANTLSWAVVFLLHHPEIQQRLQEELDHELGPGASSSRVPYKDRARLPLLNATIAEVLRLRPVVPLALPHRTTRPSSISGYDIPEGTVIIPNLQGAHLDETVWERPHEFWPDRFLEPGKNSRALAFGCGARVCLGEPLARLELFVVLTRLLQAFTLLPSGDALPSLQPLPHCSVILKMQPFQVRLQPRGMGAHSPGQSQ

[5] = Half life in rat liver microsomes at 1 uM by LC-MS/MS analysis
[6] = target: T2, CYP21 (steroid 21-hydroxylase); assay: Inhibition of human CYP21 transfected in HEK293 cells assessed as decrease in conversion of progesterone to 11-deoxycorticosterone preincubated for 5 hrs followed by progesterone addition measured after 20 hrs by ELISA; type: cell-based; design: concentration or dose not given beside the values; conditions: HEK293 cells transfected with human CYP21, probe progesterone
CYP11B = target: T3, CYP11B (Rattus norvegicus, UniProt P15393+P30099); assay: Inhibition of Sprague-Dawley rat adrenal mitochondrial CYP11B assessed as decrease in conversion of 11-deoxycortisol to cortisol at 100 nM incubated for 60 mins by ELISA relative to control; type: protein assay; conditions: adrenal mitochondria, probe 11-deoxycortisol
T3 sequence (P30099 whole entry): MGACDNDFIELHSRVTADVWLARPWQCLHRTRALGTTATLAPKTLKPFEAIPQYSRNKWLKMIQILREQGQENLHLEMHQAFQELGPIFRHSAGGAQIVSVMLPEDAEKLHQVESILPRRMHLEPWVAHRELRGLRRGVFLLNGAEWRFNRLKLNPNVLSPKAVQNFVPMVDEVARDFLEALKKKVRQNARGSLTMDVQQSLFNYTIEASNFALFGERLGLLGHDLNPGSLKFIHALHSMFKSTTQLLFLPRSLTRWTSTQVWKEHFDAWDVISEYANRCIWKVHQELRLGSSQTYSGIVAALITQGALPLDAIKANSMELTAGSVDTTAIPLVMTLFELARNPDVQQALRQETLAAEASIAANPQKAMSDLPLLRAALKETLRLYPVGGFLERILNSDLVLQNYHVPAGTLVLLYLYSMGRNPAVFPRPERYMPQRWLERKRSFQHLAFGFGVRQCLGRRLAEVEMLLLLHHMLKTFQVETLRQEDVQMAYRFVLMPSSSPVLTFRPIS
T3 sequence (P15393 whole entry): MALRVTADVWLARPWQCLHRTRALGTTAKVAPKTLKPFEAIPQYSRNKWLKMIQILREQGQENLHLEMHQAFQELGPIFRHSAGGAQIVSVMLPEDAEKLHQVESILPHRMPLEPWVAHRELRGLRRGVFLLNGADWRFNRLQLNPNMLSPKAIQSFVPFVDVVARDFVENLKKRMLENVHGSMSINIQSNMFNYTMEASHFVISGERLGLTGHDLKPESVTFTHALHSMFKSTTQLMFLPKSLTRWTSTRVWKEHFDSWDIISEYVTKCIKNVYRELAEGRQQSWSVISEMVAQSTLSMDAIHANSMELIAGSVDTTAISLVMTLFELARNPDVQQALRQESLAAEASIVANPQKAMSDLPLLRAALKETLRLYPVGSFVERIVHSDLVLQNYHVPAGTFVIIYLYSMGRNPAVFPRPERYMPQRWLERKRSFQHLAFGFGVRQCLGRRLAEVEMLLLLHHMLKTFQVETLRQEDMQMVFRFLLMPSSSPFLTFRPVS

[7] = target: T1, Steroid 17-alpha-hydroxylase/17,20 lyase; assay: Inhibition of CYP17 in human H295R cells assessed as decrease in testosterone levels after 24 hrs by ELISA; type: cell-based
[8] = target: T1, Steroid 17-alpha-hydroxylase/17,20 lyase; assay: Inhibition of CYP17 in human testicular microsomes using 17alpha-hydroxypregnenolone as substrate assessed as decrease in DHEA levels at 1 nM after 90 mins by ELISA relative to control; design: species or system Testis

inhibition at 0.01 µM [1] [%] | IC50 [2] [nM] | half-life at 1 µM [3] [min] | inhibition at 20 h, 0.1 µM [4] [%] | half-life at 1 µM [5] [min] | IC50 [7] [nM] | Compound | inhibition at 20 h [6] [%] | inhibition at 1 h, 0.1 µM (CYP11B) [%] | IC50 [8] [nM]
≥ 80 |  | 1 to 50 | ≥ 30 |  |  | C[C@]12CCCC(=O)CC1=CC[C@@H]1[C@@H]2CC[C@]2(C)C(c3cnccn3)=CC[C@@H]12 |  |  | 
50 to 80 |  |  | < 30 |  |  | Cc1cncc(C2=CC=C3[C@@H]4CCC5=CC(=O)N(C)CC[C@]5(C)[C@H]4CC[C@]23C)c1 |  |  | 
50 to 80 |  | 1 to 10 | ≥ 30 | 1 to 10 |  | C[C@]12CCNC(=O)C=C1CC[C@@H]1[C@@H]2CC[C@]2(C)C(c3cncnc3)=CC[C@@H]12 |  |  | 
≥ 80 | ≤ 11 | 1 to 50 | < 30 | 1 to 10 |  | C[C@]12CC[C@H]3[C@@H](CC[C@H]4CC(=O)NCC[C@@]43C)C1=CC=C2c1cccnc1 |  |  | 
50 to 80 | ≤ 11 | 10 to 60 | ≥ 30 | 10 to 60 |  | Cc1cncc(C2=CC[C@H]3[C@@H]4CCC5=CC(=O)NCC[C@]5(C)[C@H]4CC[C@]23C)c1 |  |  | 
≥ 80 |  | ≥ 50 | < 30 | 1 to 10 |  | C[C@]12CCNC(=O)C=C1CC[C@@H]1[C@@H]2CC[C@]2(C)C(n3ccnn3)=CC[C@@H]12 |  |  | 
≥ 80 | ≤ 11 | ≥ 50 | < 30 | 10 to 60 | ≤ 15 | C[C@]12CCNC(=O)C=C1CC[C@@H]1[C@@H]2CC[C@]2(C)C(n3ccnc3)=CC[C@@H]12 |  |  | 
50 to 80 | ≤ 11 |  | < 30 |  |  | CCCOc1cncc(C2=CC[C@H]3[C@@H]4CCC5=CC(=O)NCC[C@]5(C)[C@H]4CC[C@]23C)c1 |  |  | 
≥ 80 | ≤ 11 | ≥ 50 | < 30 | 10 to 60 |  | C[C@]12CC[C@H]3[C@@H](CCC4=CC(=O)NCC[C@@]43C)C1=CC=C2n1ccnc1 |  |  | 

Continued, compound first:

Compound | inhibition at 0.01 µM [1] [%] | IC50 [2] [nM] | half-life at 1 µM [3] [min] | inhibition at 20 h, 0.1 µM [4] [%] | half-life at 1 µM [5] [min] | IC50 [7] [nM] | inhibition at 20 h [6] [%] | inhibition at 1 h, 0.1 µM (CYP11B) [%] | IC50 [8] [nM]
C[C@]12CCCC(=O)CC1=CC[C@@H]1[C@@H]2CC[C@]2(C)C(n3ccnc3)=CC[C@@H]12 | ≥ 80 | ≤ 11 | 1 to 50 | ≥ 30 |  |  |  |  | 
CN1CC[C@@]2(C)C(=CC1=O)CCC1[C@@H]2CC[C@]2(C)C(c3cccnc3)=CC[C@@H]12 (single isomer, unassigned) | 50 to 80 | ≤ 11 | 10 to 60 | ≥ 30 | 10 to 60 |  |  |  | 
CCNC(=O)N[C@@H]1CC[C@@]2(C)C(=CC[C@@H]3[C@@H]2CC[C@]2(C)C(n4ccnc4)=CC[C@@H]32)C1 |  |  | 1 to 50 | < 30 |  |  | ≥ 50 | ≥ 50 | 
CCc1cncc(C2=CC[C@H]3[C@@H]4CCC5=CC(=O)N(C)CC[C@]5(C)[C@H]4CC[C@]23C)c1 | 50 to 80 |  |  | ≥ 30 |  |  |  |  | 
CO/N=C1/C=C2CC[C@H]3C4=CC=C(c5cccnc5)[C@@]4(C)CC[C@@H]3[C@@]2(C)CC1 |  | ≤ 11 | ≥ 50 | ≥ 30 |  |  | 10 to 50 |  | > 100
C[C@]12CCNC(=O)C=C1CC[C@@H]1[C@@H]2CC[C@]2(C)C(c3cccnc3)=CC[C@@H]12 | ≥ 80 | ≤ 11 | 1 to 10 | < 30 | 1 to 10 |  |  |  | 
COc1cncc(C2=CC=C3[C@@H]4CCC5=CC(=O)CC[C@]5(C)[C@H]4CC[C@]23C)c1 | 50 to 80 |  | 1 to 50 | ≥ 30 |  |  |  |  | 
COc1cncc(C2=CC=C3[C@@H]4CCC5=CC(=O)N(C)CC[C@]5(C)[C@H]4CC[C@]23C)c1 | ≥ 80 | ≤ 11 | 1 to 50 | ≥ 30 |  |  |  |  | 
CN1CC[C@@]2(C)C(=CC1=O)CC[C@H]1C3=CC=C(n4ccnc4)[C@@]3(C)CC[C@@H]12 | ≥ 80 |  | ≥ 50 | ≥ 30 | 10 to 60 | ≤ 15 |  |  | 
CN1CC[C@@]2(C)C(=CC1=O)CC[C@H]1C3=CC=C(c4cnccn4)[C@@]3(C)CC[C@@H]12 | ≥ 80 | ≤ 11 |  | ≥ 30 |  |  | 10 to 50 |  | 
C[C@]12CC[C@H]3[C@@H](CC[C@H]4CC(=O)NCC[C@@]43C)C1=CC=C2n1ccnc1 | ≥ 80 | ≤ 11 | 1 to 50 | ≥ 30 |  |  |  |  | 
C[C@]12CC[C@H]3[C@@H](CCN4C(=O)CCCC[C@]34C)[C@@H]1CC=C2c1cccnc1 | 50 to 80 | ≤ 11 |  | < 30 |  |  |  |  | 
C[C@]12CCNC(=O)C=C1CC[C@@H]1[C@@H]2CC[C@]2(C)C(c3cnccn3)=CC[C@@H]12 | ≥ 80 |  | 1 to 10 | ≥ 30 | 1 to 10 |  |  |  | 
COc1cncc(C2=CC=C3[C@@H]4CCC5=CC(=O)NCC[C@]5(C)[C@H]4CC[C@]23C)c1 | 50 to 80 | ≤ 11 |  | ≥ 30 |  |  |  |  | 
CCc1cncc(C2=CC[C@H]3[C@@H]4CCC5=CC(=O)NCC[C@]5(C)[C@H]4CC[C@]23C)c1 | ≥ 80 | ≤ 11 | 10 to 60 | < 30 | 10 to 60 |  |  |  | 
C[C@]12CC[C@H]3[C@@H](CCC4=CC(=O)CC[C@@]43C)C1=CC=C2c1cccnc1 | ≥ 80 | ≤ 11 | 1 to 50 | ≥ 30 | 1 to 10 |  |  |  | 
